{"source": "paper PMC9199882", "about": "(Clinical and Translational Science, 2022)", "key": {"CYP3A": {"system": "CYP3A", "assay": "Effect of asciminib on CYP3A substrate midazolam", "details": "for AUClast G mean ratio (90% CI) / Cmax G mean ratio (90% CI): midazolam + asciminib / midazolam"}, "[1]": {"assay": "Midazolam and 1-hydroxymidazolam plasma PK, DDI study stage 1"}, "[2]": {"details": "midazolam 7.5 mg oral; cited from earlier work"}, "[3]": {"details": "for Cmax, adjusted G mean: linear mixed model"}, "CYP2C9": {"system": "CYP2C9", "assay": "Effect of asciminib on CYP2C9 substrate warfarin"}, "prothrombin time": {"system": "prothrombin time", "assay": "Prothrombin pharmacodynamic analysis of warfarin", "details": "warfarin + asciminib vs warfarin alone"}, "[4]": {"details": "warfarin 10 mg oral, cited from earlier work"}, "[5]": {"assay": "Repaglinide plasma PK, DDI study stage 2"}, "CYP2C8": {"system": "CYP2C8", "assay": "Effect of asciminib on CYP2C8 substrate repaglinide", "details": "for AUClast G mean ratio (90% CI) / Cmax G mean ratio (90% CI): repaglinide + asciminib / repaglinide"}, "blood glucose": {"system": "blood glucose", "assay": "Blood glucose concentration-time profile of repaglinide", "type": "in vivo, human", "details": "blood glucose concentration–time profiles, 6 h post-dose, days 1 and 5"}, "[6]": {"details": "cited from earlier work"}, "[7]": {"details": "patients with CML, doses of up to 200 mg b.i.d.; cited from earlier work"}, "[8]": {"details": "patients with CML, 40 mg bid, ref Novartis, unpublished data, cited from earlier work"}, "[9]": {"details": "midazolam at asciminib steady-state vs midazolam alone"}, "[10]": {"details": "warfarin 5 mg oral + asciminib 40 mg b.i.d. steady-state, day 11, plasma"}, "[11]": {"details": "warfarin 5 mg oral alone, day 1, plasma"}, "[12]": {"details": "warfarin + asciminib 40 mg b.i.d. steady-state"}, "[13]": {"details": "warfarin at asciminib steady-state vs warfarin alone"}, "[14]": {"details": "repaglinide in the presence of asciminib vs alone"}, "[15]": {"details": "ref Novartis, unpublished data, 9, 10"}}, "note": "Where two headings read alike, the source gives them in different places.", "data": [{"smiles": "Cc1ncc2n1-c1ccc(Cl)cc1C(c1ccccc1F)=NC2", "note": "[Midazolam, midazolam]", "values": [{"measurement": "AUClast G mean ratio (90% CI)", "setting": "CYP3A", "value": 1.27}, {"measurement": "Cmax G mean ratio (90% CI)", "setting": "CYP3A", "value": 1.11}, {"measurement": "AUClast G mean ratio (90% CI)", "setting": "CYP3A; listed as midazolam", "value": "1.27 (1.14, 1.41)"}, {"measurement": "Cmax G mean ratio (90% CI)", "setting": "CYP3A; listed as midazolam", "value": "1.11 (0.96, 1.28)"}, {"measurement": "increase in AUCinf", "setting": "CYP3A; [9]", "value": 28, "unit": "%"}, {"measurement": "increase in AUClast", "setting": "CYP3A; [9]", "value": 27, "unit": "%"}, {"measurement": "increase in Cmax", "setting": "CYP3A; [9]", "value": 11, "unit": "%"}, {"measurement": "AUC(0-inf)", "setting": "[1]; human, plasma, oral, AUCinf, adjusted G mean, midazolam alone, linear mixed model", "value": 37.4, "unit": "ng·h/mL"}, {"measurement": "AUC(0-t)", "setting": "[1]; human, plasma, oral, AUClast, adjusted G mean, midazolam alone, linear mixed model", "value": 35.4, "unit": "ng·h/mL"}, {"measurement": "Cmax", "setting": "[1]; human, plasma, oral, Cmax, adjusted G mean, midazolam alone, linear mixed model", "value": 15.9, "unit": "ng/mL"}, {"measurement": "Tmax", "setting": "[1]; human, plasma, po, 4 mg", "value": 0.51, "unit": "h"}, {"measurement": "Vd/F", "setting": "[1]; human, plasma, po, 4 mg", "value": 413, "unit": "L"}, {"measurement": "CL/F, G mean (GCV%)", "setting": "[1]; midazolam 4 mg oral + asciminib 40 mg b.i.d. steady-state, day 11", "value": "83.0 (38.8) L/h"}, {"measurement": "AUClast, G mean (GCV%)", "setting": "[1]; midazolam 4 mg oral + asciminib 40 mg b.i.d. steady-state, day 11, plasma", "value": "44.9 (38.1) ng × h/ml"}, {"measurement": "CL/F, G mean (GCV%)", "setting": "[1]; midazolam 4 mg oral alone, day 1", "value": "107 (31.2) L/h"}, {"measurement": "median Cmax", "setting": "[2]", "value": 63.1, "unit": "ng/mL"}, {"measurement": "median T 1/2", "setting": "[2]", "value": 3.2, "unit": "h"}, {"measurement": "median Tmax", "setting": "[2]", "value": 0.34, "unit": "h"}]}, {"smiles": "CC(=O)C[C@H](c1ccccc1)c1c(O)c2ccccc2oc1=O", "note": "[R‐Warfarin, R‐warfarin]", "values": [{"measurement": "Cmax, G mean (GCV%)", "setting": "[3]; [10]", "value": "213 (20.4) ng/ml"}, {"measurement": "Tmax, median (range)", "setting": "[3]; [10]", "value": "2.95 (0.94–11.7) h"}, {"measurement": "Cmax, G mean (GCV%)", "setting": "[3]; [11]", "value": "196 (19.6) ng/ml"}, {"measurement": "Tmax, median (range)", "setting": "[3]; [11]", "value": "2.01 (0.99–12.0) h"}, {"measurement": "Tmax, median (range)", "setting": "[3]; warfarin 5 mg oral alone, day 1, plasma, listed as R‐warfarin", "value": 2.0, "unit": "h"}, {"measurement": "Cmax, adjusted G mean", "setting": "[3]; [12]", "value": 215, "unit": "ng/mL"}, {"measurement": "Cmax, adjusted G mean", "setting": "[3]; warfarin alone", "value": 196, "unit": "ng/mL"}, {"measurement": "increase in AUCinf", "setting": "CYP2C9; [13]", "value": 25, "unit": "%"}, {"measurement": "increase in AUClast", "setting": "CYP2C9; [13]", "value": 24, "unit": "%"}, {"measurement": "increase in Cmax", "setting": "CYP2C9; [13]", "value": 10, "unit": "%"}]}, {"smiles": "CC(=O)CC(c1ccccc1)c1c(O)c2ccccc2oc1=O", "note": "(stereo not drawn) [Warfarin, warfarin]", "values": [{"measurement": "anticoagulation activity on co‐administration with asciminib", "setting": "prothrombin time", "value": "unaffected"}, {"measurement": "Cmax", "setting": "[4]; read-out: median Cmax", "value": "1700 to 2000", "unit": "nM"}, {"measurement": "median Cmax", "setting": "[4]; converted from μM", "value": "500 to 600", "unit": "ng/mL"}, {"measurement": "median Tmax", "setting": "[4]", "value": 2, "unit": "h"}]}, {"smiles": "OCc1ncc2n1-c1ccc(Cl)cc1C(c1ccccc1F)=NC2", "note": "[1-hydroxymidazolam, 1‐hydroxymidazolam]", "values": [{"measurement": "metabolite‐to‐parent ratio of G mean AUCinf", "setting": "[1]; midazolam alone", "value": 0.31}, {"measurement": "metabolite‐to‐parent ratio of G mean AUClast", "setting": "[1]; midazolam alone", "value": 0.31}, {"measurement": "metabolite‐to‐parent ratio of G mean AUCinf", "setting": "[1]; midazolam with asciminib", "value": 0.29}, {"measurement": "metabolite‐to‐parent ratio of G mean AUClast", "setting": "[1]; midazolam with asciminib", "value": 0.27}]}, {"smiles": "CCOc1cc(CC(=O)N[C@@H](CC(C)C)c2ccccc2N2CCCCC2)ccc1C(=O)O", "note": "[Repaglinide, repaglinide]", "values": [{"measurement": "Cmax", "setting": "[5]; human, plasma, oral, 0.5 mg", "value": 6.71, "unit": "ng/mL"}, {"measurement": "Cmax", "setting": "[5]; human, plasma, po, 0.5 mg", "value": 6.71, "unit": "ng/mL"}, {"measurement": "Tmax", "setting": "[5]; human, plasma, po, 0.5 mg", "value": 0.75, "unit": "h"}, {"measurement": "Vd/F", "setting": "[5]; human, plasma, po, 0.5 mg", "value": 162, "unit": "L"}, {"measurement": "CL/F, G mean (GCV%)", "setting": "[5]; repaglinide 0.5 mg oral + asciminib 40 mg b.i.d. steady-state, day 5", "value": "43.2 (38.2) L/h"}, {"measurement": "T 1/2, G mean (GCV%)", "setting": "[5]; repaglinide 0.5 mg oral + asciminib 40 mg b.i.d. steady-state, day 5, plasma", "value": "2.09 (76.3) h"}, {"measurement": "CL/F, G mean (GCV%)", "setting": "[5]; repaglinide 0.5 mg oral alone, day 1", "value": "46.3 (36.8) L/h"}, {"measurement": "T 1/2, G mean (GCV%)", "setting": "[5]; repaglinide 0.5 mg oral alone, day 1, plasma", "value": "2.42 (46.2) h"}, {"measurement": "AUClast G mean ratio (90% CI)", "setting": "CYP2C8", "value": 1.09}, {"measurement": "Cmax G mean ratio (90% CI)", "setting": "CYP2C8", "value": 1.14}, {"measurement": "AUClast G mean ratio (90% CI)", "setting": "CYP2C8; listed as repaglinide", "value": "1.09 (1.03, 1.15)"}, {"measurement": "Cmax G mean ratio (90% CI)", "setting": "CYP2C8; listed as repaglinide", "value": "1.14 (1.01, 1.28)"}, {"measurement": "increase in AUCinf", "setting": "CYP2C8; [14]", "value": 8, "unit": "%"}, {"measurement": "increase in AUClast", "setting": "CYP2C8; [14]", "value": 9, "unit": "%"}, {"measurement": "increase in Cmax", "setting": "CYP2C8; [14]", "value": 14, "unit": "%"}, {"measurement": "glucose‐metabolizing activity alone or in combination with asciminib", "setting": "blood glucose", "value": "no difference"}]}, {"smiles": "CC(=O)C[C@@H](c1ccccc1)c1c(O)c2ccccc2oc1=O", "note": "[S‐Warfarin, S‐warfarin]", "values": [{"measurement": "Cmax, G mean (GCV%)", "setting": "[3]; [10]", "value": "225 (17.2) ng/ml"}, {"measurement": "Tmax, median (range)", "setting": "[3]; [10]", "value": "2.00 (0.94–3.99) h"}, {"measurement": "Cmax, G mean (GCV%)", "setting": "[3]; [11]", "value": "209 (18.6) ng/ml"}, {"measurement": "Tmax, median (range)", "setting": "[3]; [11]", "value": "2.00 (0.99–4.00) h"}, {"measurement": "Cmax, adjusted G mean", "setting": "[3]; [12]", "value": 227, "unit": "ng/mL"}, {"measurement": "Cmax, adjusted G mean", "setting": "[3]; warfarin alone", "value": 209, "unit": "ng/mL"}, {"measurement": "increase in AUClast", "setting": "CYP2C9; [13]", "value": 39, "unit": "%"}, {"measurement": "increase in Cmax", "setting": "CYP2C9; [13]", "value": 9, "unit": "%"}]}, {"smiles": "O=C(Nc1ccc(OC(F)(F)Cl)cc1)c1cnc(N2CC[C@@H](O)C2)c(-c2ccn[nH]2)c1", "note": "[Asciminib, asciminib]", "values": [{"measurement": "half‐life (T 1/2)", "setting": "[6]", "value": "7 to 15", "unit": "h"}, {"measurement": "unchanged asciminib in urine", "setting": "[6]", "value": 2.5, "unit": "%"}, {"measurement": "unchanged asciminib share of drug‐related exposure in plasma", "setting": "[6]", "value": "> 90", "unit": "%"}, {"measurement": "mean recovery from feces", "setting": "[6]; disposition studies in humans", "value": 80, "unit": "%"}, {"measurement": "clearance pathway: direct glucuronidation by UGT", "setting": "[6]; mainly UGT2B7, UGT2B17, UGT1A3/4, ref Novartis, unpublished data, 9, 10", "value": 27.9, "unit": "%"}, {"measurement": "clearance pathway: oxidation by CYP3A4", "setting": "[6]; part of the CYP oxidation, ref Novartis, unpublished data, 9, 10", "value": 36, "unit": "%"}, {"measurement": "median time to reach the maximum plasma concentration (Tmax)", "setting": "[6]; post‐dose", "value": "2 to 3", "unit": "h"}, {"measurement": "clearance pathway: biliary secretion by BCRP", "setting": "[6]; [15]", "value": 31.1, "unit": "%"}, {"measurement": "clearance pathway: oxidation by cytochrome P450 enzymes", "setting": "[6]; [15]", "value": 37.8, "unit": "%"}, {"measurement": "inhibitor classification, CYP3A", "setting": "CYP3A; human, in vivo", "value": "weak inhibitor"}, {"measurement": "maximum tolerated dose", "setting": "[7]", "value": "not reached"}, {"measurement": "Cmax at steady‐state, unbound asciminib", "setting": "[8]", "value": 48, "unit": "nM"}, {"measurement": "Cmax", "setting": "[8]; read-out: Cmax at steady‐state, total asciminib", "value": 1770, "unit": "nM"}, {"measurement": "effect on CYP2C8", "setting": "CYP2C8; asciminib 40 mg b.i.d.", "value": "no meaningful effect"}, {"measurement": "inhibitor classification, CYP2C9", "setting": "CYP2C9; asciminib 40 mg b.i.d.", "value": "weak inhibitor"}]}]}
